Test results published in patent EP4230621A1, “SUBSTITUTED N-BENZOIC ACID URACILS, THEIR SALTS AND USE OF SAID COMPOUNDS AS HERBICIDAL AGENTS” (Bayer AG, priority 2022, dated 2023).

Key:
Type in all cases: in vivo
[1] = test system: Triticum aestivum; assay: Post-emergence action on crop plants, TRZAS (greenhouse pot test); conditions: crop plant
Source text: (§1) Die folgenden Abkürzungen werden für die in den folgenden Tabellen aufgeführten Kultur- und Schadpflanzen verwendet: ABUTH: Abutilon theophrasti ALOMY: Alopecurus myosuroides AMARE: Amaranthus retroflexus BRSNS: Brassica napus DIGSA: Digitaria sanguinalis ECHCG: Echinochloa crus-galli GLXMA: Glycine max KCHSC: Kochia scoparia LOLRI: Lolium rigidum MATIN: Matricaria inodora ORYZA: Oryza sativa PHPBU: Pharbitis purpurea POLCO: Polygonum convolvulus SETVI: Setaria viridis VERPE: Veronica persica VIOTR: Viola tricolor TRZAS: Triticum aestivum ZEAMX: Zea mays
(§2) Samen von mono- bzw. dikotylen Kulturpflanzen wurden in Kunststoff- oder Holzfasertöpfen in sandigem Lehmboden ausgelegt, mit Erde abgedeckt und im Gewächshaus unter kontrollierten Wachstumsbedingungen angezogen. 2 bis 3 Wochen nach der Aussaat wurden die Versuchspflanzen im Einblattstadium behandelt. Die in Form von benetzbaren Pulvern (WP) oder als Emulsionskonzentrate (EC) formulierten erfindungsgemäßen Verbindungen wurden dann als wässrige Suspension bzw. Emulsion unter Zusatz von 0,5% Additiv mit einer Wasseraufwandmenge von umgerechnet 600 1/ha auf die grünen Pflanzenteile gesprüht. Nach ca. 3 Wochen Standzeit der Versuchspflanzen im Gewächshaus, unter optimalen Wachstumsbedingungen, wurde die Wirkung der Präparate visuell im Vergleich zu unbehandelten Kontrollen bonitiert. Beispielsweise bedeutet 100% Wirkung = Pflanzen sind abgestorben, 0% Wirkung = wie Kontrollpflanzen.
(§3) In den nachstehenden Tabellen B1 bis B3 sind die Wirkungen ausgewählter Verbindungen der allgemeinen Formel (I) gemäß der Tabelle 1 auf verschiedene Kulturpflanzen und einer Aufwandmenge entsprechend 20 g/ha und niedriger, die gemäß zuvor genannter Versuchsvorschrift erhalten wurden, dargestellt. Tabelle B1a: Nachauflaufwirkung bei 5 g/ha gegen ZEAMX in %

[2] = test system: Digitaria sanguinalis; assay: Post-emergence herbicidal action against DIGSA (greenhouse pot test); conditions: visual rating after ca. 3 weeks vs untreated controls (100% = plants dead, 0% = like controls)
Source text: as §1
as §2, with “Unkrautpflanzen” for “Kulturpflanzen”
(§4) In den nachstehenden Tabellen A1 bis A11 sind die Wirkungen ausgewählter Verbindungen der allgemeinen Formel (I) gemäß der Tabelle 1 auf verschiedene Schadpflanzen und einer Aufwandmenge entsprechend 80 g/ha und niedriger, die gemäß zuvor genannter Versuchsvorschrift erhalten wurden, dargestellt. Tabelle A1a: Nachauflaufwirkung bei 5 g/ha gegen ABUTH in %

[3] = test system: Amaranthus retroflexus; assay: Post-emergence herbicidal action against AMARE (greenhouse pot test); conditions: visual rating after ca. 3 weeks vs untreated controls (100% = plants dead, 0% = like controls)
Source text: as §1
as §2, with “Unkrautpflanzen” for “Kulturpflanzen”
as §4

[4] = test system: Lolium rigidum; assay: Post-emergence herbicidal action against LOLRI (greenhouse pot test); conditions: 80 g/ha, visual rating after ca. 3 weeks vs untreated controls (100% = plants dead, 0% = like controls)
Source text: as §1
as §2, with “Unkrautpflanzen” for “Kulturpflanzen”
as §4

[5] = test system: Viola tricolor; assay: Post-emergence herbicidal action against VIOTR (greenhouse pot test)
Source text: as §1
as §2, with “Unkrautpflanzen” for “Kulturpflanzen”
as §4

[6] = test system: Alopecurus myosuroides; assay: Post-emergence herbicidal action against ALOMY (greenhouse pot test); conditions: visual rating after ca. 3 weeks vs untreated controls (100% = plants dead, 0% = like controls)
Source text: as §1
as §2, with “Unkrautpflanzen” for “Kulturpflanzen”
as §4

[7] = test system: Setaria viridis; assay: Post-emergence herbicidal action against SETVI (greenhouse pot test)
Source text: as §1
as §2, with “Unkrautpflanzen” for “Kulturpflanzen”
as §4

[8] = test system: Veronica persica; assay: Post-emergence herbicidal action against VERPE (greenhouse pot test)
Source text: as §1
as §2, with “Unkrautpflanzen” for “Kulturpflanzen”
as §4

[9] = test system: Polygonum convolvulus; assay: Post-emergence herbicidal action against POLCO (greenhouse pot test)
Source text: as §1
as §2, with “Unkrautpflanzen” for “Kulturpflanzen”
as §4

[10] = test system: Matricaria inodora; assay: Post-emergence herbicidal action against MATIN (greenhouse pot test); conditions: for Nachauflaufwirkung gegen MATIN: visual rating after ca. 3 weeks vs untreated controls (100% = plants dead, 0% = like controls); for Nachauflaufwirkung gegen MATIN in %: 80 g/ha
Source text: as §1
as §2, with “Unkrautpflanzen” for “Kulturpflanzen”
as §4

[11] = test system: Pharbitis purpurea; assay: Post-emergence herbicidal action against PHBPU (greenhouse pot test)
Source text: as §1
as §2, with “Unkrautpflanzen” for “Kulturpflanzen”
as §4

[12] = test system: Abutilon theophrasti; assay: Post-emergence herbicidal action against ABUTH (greenhouse pot test); conditions: visual rating after ca. 3 weeks vs untreated controls (100% = plants dead, 0% = like controls)
Source text: as §1
as §2, with “Unkrautpflanzen” for “Kulturpflanzen”
as §4

[13] = test system: Zea mays; assay: Post-emergence action on crop plants, ZEAMX (greenhouse pot test); conditions: 5 g/ha, crop plant
Source text: as §1, §2, §3

Structure (SMILES)	Nachauflaufwirkung gegen TRZAS in % ([1]; 5 g/ha)	Nachauflaufwirkung gegen TRZAS in % ([1]; 20 g/ha)	Nachauflaufwirkung gegen DIGSA ([2]; 5 g/ha)	Nachauflaufwirkung gegen DIGSA ([2]; 20 g/ha)	Nachauflaufwirkung gegen DIGSA ([2]; 80 g/ha)	Nachauflaufwirkung gegen AMARE ([3]; 5 g/ha)	Nachauflaufwirkung gegen AMARE ([3]; 20 g/ha)	Nachauflaufwirkung gegen AMARE ([3]; 80 g/ha)	Nachauflaufwirkung gegen LOLRI [4]	Nachauflaufwirkung gegen VIOTR in % ([5]; 5 g/ha)	Nachauflaufwirkung gegen VIOTR in % ([5]; 20 g/ha)	Nachauflaufwirkung gegen VIOTR in % ([5]; 80 g/ha)	Nachauflaufwirkung gegen ALOMY ([6]; 20 g/ha)	Nachauflaufwirkung gegen ALOMY ([6]; 80 g/ha)	Nachauflaufwirkung gegen SETVI in % ([7]; 5 g/ha)	Nachauflaufwirkung gegen SETVI in % ([7]; 20 g/ha)	Nachauflaufwirkung gegen VERPE in % ([8]; 5 g/ha)	Nachauflaufwirkung gegen VERPE in % ([8]; 20 g/ha)	Nachauflaufwirkung gegen VERPE in % ([8]; 80 g/ha)	Nachauflaufwirkung gegen POLCO in % ([9]; 5 g/ha)	further results
Cn1c(C(F)(F)F)cc(=O)n(-c2cc(C(=O)OC(C)(C)C(=O)OCC#N)c(Cl)cc2F)c1=O [I.1-176, 1-(Cyanmethoxy)-2-methyl-1-oxopropan-2-yl-2-chlor-4-fluor-5-[3-methyl-2,6-dioxo-4-(trifluormethyl)-3,6-dihydropyrimidin-1(2H)-yl]benzoat]	10%	10%	100%	100%	100%	100%	100%	100%	90%	100%	100%	100%	80%	100%	100%	100%	100%	100%	100%	100%	Nachauflaufwirkung gegen SETVI in % ([7]; 80 g/ha (dose column; title A9c prints 20 g/ha)): 100%; Nachauflaufwirkung gegen POLCO in % ([9]; 20 g/ha): 100%; Nachauflaufwirkung gegen POLCO in % ([9]; 80 g/ha): 100%; Nachauflaufwirkung gegen MATIN ([10]; 5 g/ha): 100%; Nachauflaufwirkung gegen MATIN ([10]; 20 g/ha): 100%; Nachauflaufwirkung gegen MATIN in % [10]: 100%; Nachauflaufwirkung gegen PHBPU in % ([11]; 5 g/ha): 100%; Nachauflaufwirkung gegen PHBPU in % ([11]; 20 g/ha): 100%; Nachauflaufwirkung gegen PHBPU in % ([11]; 80 g/ha): 100%; Nachauflaufwirkung gegen ABUTH ([12]; 5 g/ha): 100%; Nachauflaufwirkung gegen ABUTH ([12]; 20 g/ha): 100%; Nachauflaufwirkung gegen ABUTH ([12]; 80 g/ha): 100%
CC(C)=NOC(=O)C(C)(C)OC(=O)c1cc(-n2c(=O)cc(C(F)(F)F)n(C)c2=O)c(F)cc1Cl [I.1-476]	10%	10%	100%	100%	100%	100%	100%	100%	100%	100%	100%	100%	100%	100%	100%	100%	100%	100%	100%	100%	Nachauflaufwirkung gegen SETVI in % ([7]; 80 g/ha): 100%; Nachauflaufwirkung gegen ZEAMX in % [13]: 20%; Nachauflaufwirkung gegen POLCO in % ([9]; 20 g/ha): 100%; Nachauflaufwirkung gegen POLCO in % ([9]; 80 g/ha): 100%; Nachauflaufwirkung gegen MATIN ([10]; 5 g/ha): 100%; Nachauflaufwirkung gegen MATIN ([10]; 20 g/ha): 100%; Nachauflaufwirkung gegen MATIN in % [10]: 100%; Nachauflaufwirkung gegen PHBPU in % ([11]; 5 g/ha): 100%; Nachauflaufwirkung gegen PHBPU in % ([11]; 20 g/ha): 100%; Nachauflaufwirkung gegen PHBPU in % ([11]; 80 g/ha): 100%; Nachauflaufwirkung gegen ABUTH ([12]; 5 g/ha): 100%; Nachauflaufwirkung gegen ABUTH ([12]; 20 g/ha): 100%; Nachauflaufwirkung gegen ABUTH ([12]; 80 g/ha): 100%
